Here are results for one substance from patent US10676721B2, “Bacteriophages expressing antimicrobial peptides and uses thereof” (priority 2009, dated 2020).

For series [1], the system named is E. coli. Put plainly: MIC of AMPs against E. coli. It counts as cell-based, Escherichia coli. To be noted: Table 3; two values per AMP.
In series [2] the test system is S. aureus. Put plainly: MIC of AMPs / enzyme against S. aureus. It counts as cell-based, Staphylococcus aureus. To be noted: Table 3; two values per AMP.
Series [3] in a line: Toxicity of AMPs (Table 3, method not described). Also noted: unit not given here. To be noted: two values per AMP.
Series [4] deals with E. coli. Put plainly: Exponential phase OD600 AMP killing assay on E. coli. It counts as cell-based, Escherichia coli. To be noted: concentration not singled out (192 and 640 μg/mL tested). How it is done: (§1) 1. Inoculate the appropriate host strain in LB medium with the appropriate selective marker and incubate with shaking at 37° C. overnight. 2. Re-dilute the culture 1:5000 into LB with the appropriate selective marker and grow at 300 rpm and 37° C. to an OD600 between 0.2 and 0.4.3. Add the appropriate amount of AMP or bacteriophage to the wells, running at least duplicate samples, preferably triplicates, and always carrying a no treatment control to control for phage contamination. 4. Sample points every 5 minutes using an automated 96-well assay plate capable heated and shaking plate reader.
(§2) The inventors tested a panel of AMPs, shown in Table 3 to assess which AMP has the greatest bacteriocidality against both E. coli and S. aureus. Cultures were grown to an optical density measured at 600 nm between 0.3-0.6 and then the AMPs were added in the respective concentrations. The decrease in OD600 is assessed as the killing of bacterial cells by the AMP, if the OD600 drops, other results cannot be inferred, as the information gained is from the OD600 is limited. The abbreviation SA denotes tests on Staphylococcus aureus, whereas EC denotes Escherichia coli bacteria. Experiments were run in duplicate. The nomenclature of these graphs follows the pattern: Strain.AMP.Concentration(μg/mL).replicate #(1 or 2). […]

The test system of series [5] is S. aureus. Put plainly: Exponential phase OD600 AMP killing assay on S. aureus. It counts as cell-based, Staphylococcus aureus. To be noted: concentration not singled out (192 and 640 μg/mL tested). How it is done:
as §1, §2

Regarding “J589_A7: AMP, RLCRIVVIRVCR (SEQ ID NO: 10) (listed as Bos taurus)”, the MIC E. coli with E. coli [1] worked out at 64 mg/L. The MIC S. aureus in the series on S. aureus [2] came to 64 mg/L. Moreover, in series [3], the Toxicity is listed as 256. For the same substance, the “bacteriocidal / bacteriostatic action on E. coli (OD600)” value in the series with E. coli [4] is listed as “intermediate bacteriocidal action”. For the same substance, the “bacteriocidal / bacteriostatic action on S. aureus (OD600)” value in the series on S. aureus [5] is “no effects”.
